Test results from patent US20100167931A1, “HETEROCYCLICALLY SUBSTITUTED HETEROCYCLYLCARBOXYLIC ACID DERIVATIVES” (Bayer CropScience AG, priority 2007, published 2010).

Key:
[1] = logP determination by HPLC on reverse-phase column (EEC Directive 79/831 Annex V.A8); format: physicochemical; conditions: for chromatographic logP: reverse-phase C18 HPLC column
Description: The logP values given in the tables and preparation examples above were determined in accordance with EEC Directive 79/831 Annex V.A8 by HPLC (High Performance Liquid Chromatography) on a reverse-phase column (C 18). Temperature: 43° C. The determination was carried out by LC-MS at pH 2.7 using 0.1% aqueous formic acid and acetonitrile (containing 0.1% formic acid) as mobile phases; linear gradient from 10% acetonitrile to 95% acetonitrile. Calibration was carried out using unbranched alkan-2-ones (having 3 to 16 carbon atoms) with known logP values (determination of the logP values by the retention times using linear interpolation between two successive alkanones).

Boophilus microplus = Boophilus microplus test (injection); format: in vivo; conditions: application rate of 20 μg/animal
Description: Boophilus microplus Test (Injection) Solvent: dimethyl sulphoxide To produce a suitable preparation of active compound, 1 part by weight of active compound is mixed with the stated amount of solvent, and the concentrate is diluted with solvent to the desired concentration. The solution of active compound is injected into the abdomen (Boophilus microplus), the animals are transferred into dishes and stored in a climatized room. After the desired period of time, the effect in % is determined. 100% means that none of the ticks has laid any fertile eggs.

[2] = test system: green peach aphid (Myzus persicae); experiment: Activity increase by ammonium/phosphonium salts in combination with penetrants, Myzus persicae test; format: in vivo; conditions: 20 ppm, bell pepper plants
Description: Activity Increase by Ammonium/Phosphonium Salts in Combination with Penetrants Myzus persicae Test
Solvent: 7 parts by weight of dimethylformamide
Emulsifier: 2 parts by weight of alkylaryl polyglycol ether
To produce a suitable preparation of active compound, 1 part by weight of active compound is mixed with the stated amounts of solvent and emulsifier, and the concentrate is diluted with emulsifier-containing water to the desired concentration. If the addition of ammonium salts or ammonium salts and penetrants is required, these are in each case added in a concentration of 1000 ppm after dilution to the finished solution of the preparation.
Bell pepper plants (Capsicum annuum) which are heavily infested by the green peach aphid (Myzus persicaei) are treated by being sprayed with the active compound preparation at the desired concentration.
After the desired period of time, the kill in % is determined. 100% means that all animals have been killed; 0% means that none of the animals have been killed.

[3] = HPLC reverse-phase C 18, 43° C., pH 2.7, 0.1% aqueous formic acid and acetonitrile
[4] = intermediates of the formula (IV), HPLC reverse-phase C18, 43° C., pH 2.7 (0.1% aqueous formic acid/acetonitrile)
[5] = intermediates of the formula (V), HPLC reverse-phase C18, 43° C., pH 2.7 (0.1% aqueous formic acid/acetonitrile)
[6] = intermediates of the formula (VI), HPLC reverse-phase C18, 43° C., pH 2.7 (0.1% aqueous formic acid/acetonitrile)

**Q.** Which logP [1, 3] does the source give for CC(C)C(C)Nc1c(-n2cc(Cl)cn2)c(Cl)nc2c(C(=O)O)cnn12 (centres unmarked) [Example I-25] here?
**A.** m/z 383, logP 2.81

**Q.** Which logP [1, 4] does the source give for COC(=O)c1cnn2c(O)c(-c3c(Cl)c(C)nn3C)c(O)nc12 [IV-17] here?
**A.** logP 0.59

**Q.** Which logP [1, 3] does the source give for O=C(O)c1cnn2c(NCC3CC3)c(-n3nc(C(F)(F)F)cc3C(F)(F)F)c(Cl)nc12 [Example I-23] here?
**A.** m/z 469, logP 3.22

**Q.** For COC(=O)c1cnn2c(Cl)c(-c3c(Cl)c(C)nn3C)c(Cl)nc12 [V-18], which logP [1, 5] is on record?
**A.** logP 2.67

**Q.** With COC(=O)c1cnn2c(NC(C)C(F)(F)F)c(-c3c(C)nn(C)c3C)c(Cl)nc12 (centres unmarked) [VI-12] as the compound, how does the logP [1, 6] read?
**A.** m/z 431, logP 2.54

**Q.** Which logP [1, 5] does the source give for COC(=O)c1cnn2c(Cl)c(-n3cc(Cl)cn3)c(Cl)nc12 [V-5] here?
**A.** m/z 346, logP 2.50

**Q.** Which logP [1, 5] does the source give for COC(=O)c1cnn2c(Cl)c(-c3ncccc3C(F)(F)F)c(Cl)nc12 [V-21] here?
**A.** logP 2.61

**Q.** With COC(=O)c1cnn2c(O)c(-n3cc(Cl)cn3)c(O)nc12 [IV-4] as the compound, how does the logP [1, 4] read?
**A.** m/z 310, logP 0.43

**Q.** For N#CC(C#N)c1c(Cl)cncc1Cl [2-(3,5-dichloropyridin-4-yl)malononitrile], which chromatographic logP [1, 3] is on record?
**A.** 0.9

**Q.** Which logP [1, 3] does the source give for CC(C)Nc1c(-n2nc(C(F)(F)F)cc2C(F)(F)F)c(Cl)nc2c(C(=O)O)cnn12 [Example I-20] here?
**A.** m/z 457, logP 3.11

**Q.** For COC(=O)c1cnn2c(O)c(-c3ncccc3C(F)(F)F)c(O)nc12 [IV-20], which logP [1, 4] is on record?
**A.** logP 0.65

**Q.** For COC(=O)c1cnn2c(O)c(-c3ncc(Cl)cc3Cl)c(O)nc12 [IV-2, Methyl 6-(3,5-dichloropyridin-2-yl)-5,7-dihydroxypyrazolo[1,5-a]pyrimidine-3-carboxylate], which chromatographic logP [1, 3] is on record?
**A.** 0.74

**Q.** For COC(=O)c1cnn2c(NC(C)C)c(-c3ncc(F)cc3F)c(Cl)nc12 [VI-11], which logP [1, 6] is on record?
**A.** m/z 382, logP 2.76

**Q.** For COC(=O)c1cnn2c(O)c(-c3ncc(C(F)(F)F)cc3F)c(O)nc12 [IV-19], which logP [1, 4] is on record?
**A.** logP 0.91

**Q.** Which “effect (no fertile eggs laid)” value (Boophilus microplus) does the source give for CC(C)C(C)Nc1c(-n2nc(C(F)(F)F)cc2C(F)(F)F)c(Cl)nc2c(C(=O)NS(C)(=O)=O)cnn12 (centres unmarked) [Example I-4] here?
**A.** ≥ 80%

**Q.** For Cc1nn(C)c(-c2c(Cl)nc3c(C(=O)O)cnn3c2NC(C)C)c1Cl [Example I-57], which logP [1, 3] is on record?
**A.** logP 2.20

**Q.** Which chromatographic logP [1, 3] does the source give for COC(=O)c1cnn2c(O)c(-n3nc(C)cc3C)c(O)nc12 [IV-1, Methyl 6-(3,5-dimethyl-1H-pyrazol-1-yl)-5,7-dihydroxypyrazolo[1,5-a]pyrimidine-3-carboxylate] here?
**A.** 0.41

**Q.** For COC(=O)c1cnn2c(Cl)c(-c3ncc(Cl)cc3Cl)c(Cl)nc12 [Example V-2, Methyl 5,7-dichloro-6-(3,5-dichloropyridin-2-yl)pyrazolo[1,5-a]pyrimidine-3-carboxylate], which chromatographic logP [1, 3] is on record?
**A.** 3.12

**Q.** Which logP [1, 6] does the source give for COC(=O)c1cnn2c(NC(C)C(C)C)c(-n3cc(Cl)cn3)c(Cl)nc12 (centres unmarked) [VI-9] here?
**A.** m/z 397, logP 3.59

**Q.** Which chromatographic logP [1, 3] does the source give for COC(=O)c1cnn2c(Cl)c(-n3nc(C)cc3C)c(Cl)nc12 [Example V-1, Methyl 5,7-dichloro-6-(3,5-dimethyl-1H-pyrazol-1-yl)pyrazolo[1,5-a]pyrimidine-3-carboxylate] here?
**A.** 2.16

**Q.** For COC(=O)c1cnn2c(Cl)c(-c3c(C)nn(C)c3C)c(Cl)nc12 [V-8], which logP [1, 5] is on record?
**A.** m/z 354, logP 1.88

**Q.** Which logP [1, 4] does the source give for COC(=O)c1cnn2c(O)c(-c3cncc(Br)c3)c(O)nc12 [IV-15] here?
**A.** logP 0.78

**Q.** Which logP [1, 5] does the source give for COC(=O)c1cnn2c(Cl)c(-n3nc(C(F)(F)F)cc3C(F)(F)F)c(Cl)nc12 [V-3] here?
**A.** m/z 448, logP 3.64

**Q.** For COC(=O)c1cnn2c(NCC(F)(F)F)c(-n3nc(C(F)(F)F)cc3C(F)(F)F)c(Cl)nc12 [VI-2, Methyl 6-[3,5-bis(trifluoromethyl)-1H-pyrazol-1-yl]-5-chloro-7-[(2,2,2-trifluoroethyl)amino]-pyrazolo[1,5-a]pyrimidine-3-carboxylate], which chromatographic logP [1, 3] is on record?
**A.** 3.79

**Q.** With COC(=O)c1cnn2c(O)c(-c3nc(C)sc3C)c(O)nc12 [IV-5] as the compound, how does the logP [1, 4] read?
**A.** m/z 321, logP 0.43

**Q.** Which logP [1, 4] does the source give for COC(=O)c1cnn2c(O)c(-n3nc(C(F)(F)F)cc3C(F)(F)F)c(O)nc12 [IV-3] here?
**A.** m/z 412, logP 1.37

**Q.** Which results are given for CC(C)Nc1c(-c2ncccc2Cl)c(Cl)nc2c(C(=O)NS(C)(=O)=O)cnn12 [Example I-32]?
**A.** Kill (%) after 6 d +AS 1000 ppm ([2]; +AS 1000 ppm): 60%; Kill (%) after 6 d +AS + RME in each case 1000 ppm ([2]; +AS + RME in each case 1000 ppm): 90%; Kill (%) after 6 d ([2]; active compound alone): 10%
